From patent publication US11401278B2, “Macrocyclic indole derivatives” (The Broad Institute, Inc., priority 2017, dated 2022)
Structures can show the parent of a compound that is named as a salt. Where two headings read alike, the source gives them in different places.

Key:
[1] = system: SUDHL5; assay: Induction of caspase-3/7 activity (Assay 4), SUDHL5; format: cell-based; conditions: caspase-3/7 induction, median
Outline: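 DLBCL cells were exposed to compounds for 3 hours at 37 °C, then caspase-3/7 activation was read with Caspase-Glo 3/7 reagent. After subtracting medium-only background, EC50s were derived with fixed C0=1 and the reference compound's maximal induction as plateau.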

[2] = system: SUDHL5; assay: Antiproliferation assay (Assay 7), SUDHL5; format: cell-based; conditions: CellTiter-Glo, median, read-out: Antiproli SUDHL5 [M] (median) IC50
Outline: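 CellTiter-Glo luminescence readout; 72 h compound exposure, 37° C, humidified. Day 0 reference plate read at plating for time-zero baseline.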

EC50 ([1]; 3 hours) [nM] | IC50 ([2]; 72 hours) [M] | EC50 ([1]; Homo sapiens, SU-DHL-5, 3 h) [nM] | IC50 ([2]; Homo sapiens, SU-DHL-5, 72 h) [M] | Compound
550 | 5.9e-07 | – | – | CCc1c2c(nn1C)CN(C1CC1)S(=O)(=O)CCCn1c(C(=O)O)c(CCCOc3cccc4cc(F)ccc34)c3ccc(Cl)c-2c31 (racemic) [Example 53, (rac)-4-chloro-14-cyclopropyl-3-ethyl-7-{3-[(6-fluoro-1-naphthyl)oxy]propyl}-2-methyl-11,12,14,15-tetrahydro-2H,10H-pyrazolo[3′,4′:4,5][1,2,8]thiadiazacycloundecino[6,7,8-hi]indole-8-carboxylic acid 13,13-dioxide]
260 | 4.1e-07 | – | – | CCc1c2c(nn1C)CN(C1CC1)S(=O)(=O)CCCn1c(C(=O)O)c(CCCOc3cccc4cc(F)ccc34)c3ccc(Cl)c-2c31 (single isomer, unassigned; enantiomer 1) [Example 54, (−)-4-chloro-14-cyclopropyl-3-ethyl-7-{3-[(6-fluoronaphthalen-1-yl)oxy]propyl}-2-methyl-13,13-dioxo-10,11,12,13,14,15-hexahydro-2H-13lambda^6-pyrazolo[3′,4′:4,5][1,2,8]thiadiazacycloundecino[6,7,8-hi]indole-8-carboxylic acid N-ethylethanamine Salt (Enantiomer 1)]

Continued, compound first:

Compound | EC50 ([1]; 3 hours) [nM] | IC50 ([2]; 72 hours) [M] | EC50 ([1]; Homo sapiens, SU-DHL-5, 3 h) [nM] | IC50 ([2]; Homo sapiens, SU-DHL-5, 72 h) [M]
Cc1c2c(nn1C)CN(C)S(=O)(=O)CCCn1c(C(=O)O)c(CCCOc3cccc4ccccc34)c3ccc(Cl)c-2c31 (single isomer, unassigned; enantiomer 2) [Example 6, 4-Chloro-2,3,14-trimethyl-7-{3-[(naphthalen-1-yl)oxy]propyl}-13,13-dioxo-10,11,12,13,14,15-hexahydro-2H-13λ^6-pyrazolo[3′,4′:4,5][1,2,8]thiadiazacycloundecino[6,7,8-hi]indole-8-carboxylic acid-N-ethylethanamine salt (Enantiomer 2)] | 16000 | 1.1e-05 | – | –
Cc1c2c(nn1C)C(CCN1CCOCC1)N(C)S(=O)(=O)CCCn1c(C(=O)O)c(CCCOc3cccc4cc(F)ccc34)c3ccc(Cl)c-2c31 (single isomer, unassigned; enantiomer 2) [Example 67, 4-chloro-7-{3-[(6-fluoronaphthalen-1-yl)oxy]propyl}-2,3,14-trimethyl-15-[2-(morpholin-4-yl)ethyl]-13,13-dioxo-10,11,12,13,14,15-hexahydro-2H-13lambda^6-pyrazolo[3′,4′:4,5][1,2,8]thiadiazacycloundecino[6,7,8-hi]indole-8-carboxylic acid (Enantiomer 2)] | 7.3 | 6.7e-09 | – | –
CCNCC.CCc1c2c(nn1C)C(CCN1CCOCC1)N(C)S(=O)(=O)CCCn1c(C(=O)O)c(CCCOc3cccc4cc(F)ccc34)c3ccc(Cl)c-2c31 (single isomer, unassigned; enantiomer 2) [Example 76, 4-chloro-3-ethyl-7-{3-[(6-fluoronaphthalen-1-yl)oxy]propyl}-2,14-dimethyl-15-[2-(morpholin-4-yl)ethyl]-13,13-dioxo-10,11,12,13,14,15-hexahydro-2H-13lambda^6-pyrazolo[3′,4′:4,5][1,2,8]thiadiazacycloundecino[6,7,8-hi]indole-8-carboxylic acid-N-ethylethanamine Salt (Enantiomer 2)] | 6.5 | 5.7e-09 | – | –
CCc1c2c(nn1C)CN(CC)S(=O)(=O)CCCn1c(C(=O)O)c(CCCOc3cccc4cc(F)ccc34)c3ccc(Cl)c-2c31 (racemic) [Example 56, (rac)-4-chloro-3,14-diethyl-7-{3-[(6-fluoro-1-naphthyl)oxy]propyl}-2-methyl-11,12,14,15-tetrahydro-2H,10H-pyrazolo[3′,4′:4,5][1,2,8]thiadiazacycloundecino[6,7,8-hi]indole-8-carboxylic acid 13,13-dioxide] | – | – | 200 | 9.6e-08
